Here are results for 3 compounds from PMC12684298, “The Parkinson's Disease Drug Tolcapone and Analogues are Potent Glycomimetic Lectin Inhibitors of Pseudomonas aeruginosa LecA” (Angewandte Chemie (International Ed. in English), 2025).

In general, Kd refers to the constant that tells how readily two partners part at equilibrium. As usually defined, the pKa is the pH at which an ionisable group is half protonated. Usually inhibition stands for how much of the control response was suppressed. What is called IC50 is the concentration needed to halve the response being measured.

The target in series [1] is T1, LecA (Pseudomonas aeruginosa, UniProt Q05097).
T1 construct: made in house; host or cells: E. coli BL21 (DE3), plasmid pET25pa11
As to conditions: previous hits; cited from earlier work.

The conditions of series [2]: one of the hydroxy groups; no reference given; cited from earlier work.
Series [3] deals with T1, LecA. Nature of the series: Surface plasmon resonance (SPR) direct binding, steady-state affinity. The protocol: To confirm the affinity of Tolcapone toward LecA in an orthogonal assay, the compound was then evaluated in a direct binding experiment by surface plasmon resonance (SPR).
Using a BIACORE X100, LecA was immobilised on a CM7 chip by standard amine coupling at 25 °C as described previously.^[5] From a 200 mM solution of Tolcapone in 100% DMSO, a 10 mM solution in PBS (supplemented with 0.05% Tween20 and 100 µM CaCl2) was prepared. The final dilutions (0 – 2000 µM) were then prepared by dilution with running buffer (PBS supplemented with 0.05% Tween 20, 100 µM CaCl2 and 5% DMSO). Increasing concentrations of Tolcapone were injected onto the immobilised LecA in steady-state affinity studies (30 s association, 60 s dissociation, flow rate 30 µL/min). Data was corrected by subtraction of the reference channel (no immobilised LecA) and analysed with the BIACORE X100 evaluation software (version 2.0). The average binding affinity and standard deviation of three independent experiments is given.
(In general: Surface plasmon resonance follows binding to a sensor surface in real time, without labels.)

In series [4] the target is T1, LecA. Nature of the series: Library screening using the FP competitive binding assay (three concentrations). As to conditions: read-out: Activity [%] (% inhibition relative to 500 µM pNPGal). From the text:
Next, we screened a library of catechols from F. Hoffmann‐La Roche, the developer of Tolcapone, in the competitive binding assay to establish a structure–activity relationship. To this end, two sets of compounds with a molecular cut‐off of 500 Da were chosen: a first set of 342 compounds contained derivatives of Tolcapone, while a second set of 3222 compounds comprised catechols covering a larger chemical space. […] Tests were run in a 384‐well‐plate format at three concentrations (first set at 125, 32, and 4 µM, second set at 100, 25, and 3 µM) in presence of 10% DMSO and 250 µM 2‐mercaptoethanol to prevent interference by a potential unspecific reactivity of electron‐rich catechols as established earlier.^[ [30] ^]
The screening followed the same assay by Joachim et al.^[2] as described above. Compounds in DMSO (1 µL with the appropriate concentration) were plated using a robot into black 384-well microtiter plates (Greiner Bio-One, Germany, cat no 781900) by the Roche compound handling facility at four replicates per concentration and compound. A mixture of LecA, sulfo-Cy5-Gal and 2-mercaptoethanol in TBS/Ca (20 mM Tris, 147 mM NaCl, 2.6 mM KCl at pH 7.4 supplemented with 1 mM CaCl2) with DMSO was added at HIPS. Final concentrations in both screening rounds were the following: 5 µM LecA, 250 µM 2-mercaptoethanol, 10 nM sulfo-Cy5-Gal and 10% DMSO. Final concentrations of the 342 compounds of the first screening round were 125 µM, 32 µM and 4 µM. The 3222 compounds of the second screening round were tested at final concentrations of 100 µM, 25 µM and 3 µM. The plate was sealed (EASYseal, Greiner Bio-One, cat no 676001), briefly centrifuged and incubated at room temperature in the dark under shaking conditions. Fluorescence intensities were measured after 1 h and 24 h using a PheraStar FS plate reader (BMG Labtech GmbH, Germany) with spectral filters for excitation at 590 nm and emission at 675 nm and polarization was calculated after blank values of 5 µM LecA in TBS/Ca buffer with 250 µM 2-mercaptoethanol and 10% DMSO were subtracted from the test compounds. The data were analysed using the MARS Data Analysis software. […] All stated values are the average including the standard deviation based on three replicates for 100 µM and four replicates in the case of compounds at 125 µM.

The target in series [5] is T1, LecA. Nature of the series: biochemical. It counts as binding. The protocol: Therefore, we focused our attention on commercially available nitro‐catechols. Prominent derivatives are inhibitors of the enzyme catechol‐O‐methyltransferase (COMT) and approved drugs for the treatment of Parkinson's disease. Four commercial COMT inhibitors were thus evaluated in a previously reported competitive binding assay based on fluorescence polarisation (FP, Table 1, Figure 1).^[ [32] ^]
The competitive binding assay was performed in analogy to Joachim et al.^[2] 10 µL of a solution containing LecA (40 µM) and sulfo-Cy5-Gal (20 nM, synthesis described in Kuhaudomlarp, Siebs et al.^[5]) in TBS/Ca buffer (20 mM Tris, 147 mM NaCl, 2.6 mM KCl at pH 7.4 supplemented with 1 mM CaCl2) were distributed in into wells of a black 384-well microtiter plate (Greiner Bio-One, Germany, cat no 781900). Then, 10 µL of serial dilutions of compounds (3 mM to 1.5 µM, dilution factor 0.5) in TBS/Ca with 40% DMSO were added in technical triplicates. Final concentrations after mixing were the following: 1.5 mM – 0.73 µM compound, 20 µM LecA, 10 nM sulfo-Cy5-Gal and 20% DMSO. The plate was sealed (EASYseal, Greiner Bio-One, cat no 676001), briefly centrifuged and incubated at room temperature in the dark under shaking conditions. Fluorescence intensity was measured after 1 h and 4 h using a PheraStar FS plate reader (BMG Labtech GmbH, Germany) with spectral filters for excitation at 590 nm and emission at 675 nm and polarization was calculated after blank values of 20 µM LecA in TBS/Ca buffer with 20% DMSO were subtracted from the test compounds. The data were analysed using the four-parameter variable slope model of the MARS Data Analysis software. The top and bottom plateau were assigned based on the control compound methyl α-d-galactoside and the data was reanalysed with these fixed values. If not mentioned otherwise, the experiment was repeated at least three times for each compound and the average and standard deviation are given. In case Triton X-100 was used it was added to the TBS/Ca buffer before the assay.

Series [6] has as its target T1, LecA. Nature of the series: biochemical. As to conditions: ITC. It counts as binding. The protocol:
Isothermal titration calorimetry was performed on a MicroCal PEAQ-ITC (Malvern Panalytical) at 25 °C and 750 rpm stirring. The cell was filled with LecA (75 - 111 µM) in TBS/Ca buffer (20 mM Tris, 147 mM NaCl, 2.6 mM KCl at pH 7.4 supplemented with 1 mM CaCl2) with 20% DMSO and titrated with ligand (0.75 mM or 1.5 mM, 19 injections) in the same buffer. Data were analysed using the one binding site model in the MicroCal PEAQ-ITC analysis software (Malvern Panalytical). The first injection of each titration was excluded and the baseline subtracted for the final figures. Three titration per compound were performed and the average as well as standard deviation are given.

The target of series [7] is T1, LecA. Description: Ligand-observed 19F NMR binding and competitive displacement with pNPGal. As to conditions: for 19F NMR peak intensity [%]: 50 µM ligand. Here is the method:
The presence of two fluorine atoms in the high affinity ligand 33 enabled another orthogonal LecA binding experiment (Figure 5c). In analogy to Denavit et al.,^[ [34] ^] ligand‐observed ^19F NMR spectra of 50 µM 33 were recorded in absence and in presence of LecA (100 µM). […] Importantly, the ligand's fluorine signal was restored when pNPGal was added as competitor molecule, indicating the specific and reversible catechol – LecA interaction.
RO0412970 was mixed with trifluoroacetic acid (TFA) as internal standard in non-deuterated TBS/Ca (20 mM Tris, 147 mM NaCl, 2.6 mM KCl at pH 7.4 supplemented with 1 mM CaCl2) and 10% DMSO-d6. From this mixture, one sample with LecA and one without LecA (as control) were prepared. […] Directly after the addition, spectra of both samples were recorded and the data was analysed with MestReNova 14.2.0. The spectra were referenced to TFA (-75.6 ppm) and the peak intensity of RO412970 compared to the internal standard TFA was calculated.

[8] abbreviates: individual replicate (Repl. 1-3).

The structures appear in SMILES notation. Where “and” joins values, the source holds several entries; their conditions need not be identical. Identical values can stand only once. Like-named read-outs stand apart in the source and are kept apart here.

T1 sequence (Q05097 whole entry): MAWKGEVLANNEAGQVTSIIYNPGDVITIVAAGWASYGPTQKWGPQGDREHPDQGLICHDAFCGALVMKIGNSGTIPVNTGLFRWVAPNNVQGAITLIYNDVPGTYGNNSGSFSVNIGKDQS

On to `O=C(c1ccccc1)c1ccc(O)c(O)c1` [3,4‐dihydroxybenzophenone], for which the Kd in series [1] was 3460 ± 410 µM.
`Cc1ccc(C(=O)c2cc(O)c(O)c([N+](=O)[O-])c2)cc1` [compound 4, Tolcapone]: in series [2], the pKa is on record as approximately 4.6. Further, in series [3], binding was put at a Kd of 181 ± 6 µM. Also, the inhibition at 100 µM in series [4] stood at 43.9 ± 2.1%. Besides, in series [5] (IC50, LecA inhibition, competitive binding assay (FP), tested up to 1.5 mM, n ≥ 2), the IC50 is 257 ± 40 µM.
As to `O=C(c1cc(O)c(O)c([N+](=O)[O-])c1)c1c(F)cccc1F` [compound 33], the IC50 was 94 µM in series [5] (IC50, extended dose-response analysis, 20% DMSO, no 2-mercaptoethanol, three experiments); 81 µM in series [5] (IC50 in presence of 0.01% Triton X-100, FP assay, 0.01% Triton X-100, one replicate); 91 µM in series [5] (IC50 in presence of 0.057% Triton X-100, FP assay, 0.057% Triton X-100, one replicate). In addition, the “N (sites)” value was 0.82 ± 0.03 and 0.820 in series [6] (average of three titrations); 0.846 and 0.788 and 0.827 in series [6] (setting [8]). For the same compound, the ΔG in series [6] (average of three titrations) was -6.6 ± 0.096 kcal/mol and -6.6 kcal/mol; in series [6] (setting [8]), -6.67 kcal/mol and -6.62 kcal/mol and -6.5 kcal/mol. The ΔH in series [6] (average of three titrations) is -5.83 ± 0.526 kcal/mol and -5.83 kcal/mol; in series [6] (setting [8]), -5.31 kcal/mol and -5.83 kcal/mol and -6.33 kcal/mol. Further, the “-TΔS” value in series [6] (setting [8]) is -1.36 kcal/mol and -0.789 kcal/mol and -0.17 kcal/mol. For the same compound, the Kd in series [6] (25 °C, 20% DMSO, average of three titrations) was 15 µM; in series [6] (setting [8]), 13.2 µM and 14.4 µM and 17.3 µM. Moreover, the “19F NMR peak intensity [%]” value in series [7] (100 µM LecA, after pNPGal (1 mM)) is reported as 79%; in series [7] (100 µM LecA, before pNPGal), 1%; in series [7] (no LecA, after pNPGal (1 mM), defined as 100%) it was 100%; in series [7] (no LecA, before pNPGal, relative to TFA standard), 106%. Also, the “19F NMR intensity ratio catechol/TFA” value in series [7] (LecA, after pNPGal) turned out to be 0.2160; in series [7] (LecA, before pNPGal), 0.0036; in series [7] (no LecA, after pNPGal), 0.2752; in series [7] (no LecA, before pNPGal), 0.2923.
